Source: US7105527B2, “N4-acylcytosine nucleosides for treatment of viral infections” (priority 2001, dated 2006)

Key:
Assay type in all cases: cell-based
HIV-1LAl = experiment: Anti-HIV (in PBM cells) assay, reverse transcriptase readout; conditions: Table 2, read-out: Anti-HIV-1 activity in different cells (EC90, μM) PBM
Summary of the method: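 Human PBM cells infected with HIV-1; compounds diluted from DMSO stocks into growth medium, AZT as positive control. Virus in supernatant quantified day 6 post-infection by reverse transcriptase assay with (rA)n.(dT)12.18 template-primer; EC50 and EC90 from concentration-response curves by median effective method.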

HIV-1RF = experiment: Anti-HIV (in MT-2 cells) assay, viral RNA accumulation; conditions: Table 2; EC90; MT-2 cells; read-out: Anti-HIV-1 activity in different cells (EC90, μM) MT-2
Summary of the method: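 HIV-1RF in MT-2 cells: viral RNA quantified after 3 days of infection by biotinylated capture/alkaline phosphatase reporter oligonucleotides. HIV-1NL4-3 recombinant virus in MT-4 cells: drug added 24 h post-infection, p24 measured by ELISA 3 days later.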

HIV-1NL4-3 = experiment: Anti-HIV assay in MT-4 cells, consensus p24 assay; conditions: Table 2, read-out: Anti-HIV-1 activity in different cells (EC90, μM) MT-4
Description: In a second antiviral testing system, the potency of the compounds was determined by measurement of viral RNA accumulation in HIV-1RF infected MT-2 cells (Bacheler L T, Paul M, Otto M J, Jadhav P K, Stone B A & Miller J A (1994) An assay for HIV RNIn infected cell lysates, and its use for rapid evaluation of antiviral efficacy. Antivir. Chem. Chemother. 5:111–121). The virus titer was established to determine the dilution producing 15 to 30 ng/RNA per well of HIV RNIn 3 days of infection. HIV-1 RNA was quantified using biotinylated capture and alkaline phosphatase-derivatized reporter oligonucleotides as described previously (Charvet A-S, Camplo M, Faury P, Graciet J C, Mourier N, Chermann J C & Kraus J L (1994) Inhibition of human immunodeficiency virus type 1 replication by phosphonoformate- and phosphonoacetate-2′,3′-dideoxy-3′-thiacytidine conjugates. J. Med. Chem. 37:2216–2223). In a third system, the effect of analogs on the replication of HIV-1NL4-3 was determined via the InterCompany Consortium consensus p24 assay as previously described (Jadhav P K & MacKay M F (1997) Cyclic urea amide: HIV-1 protease inhibitors with low nanomolar potency against both wild types and protease inhibitor resistant mutants of HIV. J. Med. Chem. 40:181–190). Recombinant viruses were recovered by transfecting the appropriate NL4-3 plasmid by lipofection. Virus stocks recovered 7 to 10 days post-transfection were titered on MT-4 cells to determine if the dilution produced 1,000 to 3,000 ng p24 in 4 days. This dilution was then used in drug susceptibility assays, where drug was added 24 h post infection of cells, and p24 quantified by ELISA 3 days later.

human PBM cells = experiment: Cytotoxicity assay in PBM cells; conditions: Table 2, read-out: Cytotoxicity in different cells (IC50, μM) PBM
Summary of the method: (§1)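 Compound toxicity measured in each cell type, with cycloheximide as positive cytotoxic control and solvent-exposed untreated cells as negative control. Cytotoxicity IC50 derived from concentration-response curves by the median effective method.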

[1] = test system: CEM (human lymphoblastoid) cells; experiment: Cytotoxicity assay in CEM cells; conditions: Table 2, read-out: Cytotoxicity in different cells (IC50, μM) CEM
Summary of the method: as §1

Vero cells = experiment: Cytotoxicity assay in Vero cells; conditions: Table 2, read-out: Cytotoxicity in different cells (IC50, μM) Vero
Summary of the method: as §1

MT-2 cells = experiment: Cytotoxicity assay in MT-2 cells; conditions: Table 2, read-out: Cytotoxicity in different cells (IC50, μM) MT-2
Summary of the method: as §1

HepG2 cells = experiment: Cytotoxicity assay in HepG2 cells; conditions: Table 2, read-out: Cytotoxicity in different cells (IC50, μM) HepG2
Summary of the method: as §1

## O=C(Nc1nc(=O)n([C@H]2C=C[C@@H](CO)O2)cc1F)c1cccc(F)c1 [Compound 39, β-D-2′,3′-Didehydro-2′,3′-dideoxy-5-fluoro-N^4-(3-fluorobenzoyl)cytidine]
HIV-1LAl
  EC90: 7.82 µM
HIV-1RF
  EC90: 1 µM
HIV-1NL4-3
  EC90: 3.1 µM
Human PBM cells
  IC50: 45.3 µM
[1]
  IC50: 4.2 µM
Vero cells
  IC50: > 100 µM
MT-2 cells
  IC50: > 50 µM
HepG2 cells
  IC50: > 100 µM

## O=C(Nc1nc(=O)n([C@H]2C=C[C@@H](CO)O2)cc1F)c1cccc(Cl)c1 [Compound 40, β-D-N^4-(3-Chlorobenzoyl)-2′,3′-didehydro-2,3′-dideoxy-5-fluorocytidine]
HIV-1LAl
  EC90: 1.71 µM
HIV-1RF
  EC90: 2 µM
HIV-1NL4-3
  EC90: 3.4 µM
Human PBM cells
  IC50: 45.3 µM
[1]
  IC50: 11.2 µM
Vero cells
  IC50: 100 µM
MT-2 cells
  IC50: > 50 µM
HepG2 cells
  IC50: 32.4 µM

## O=C(Nc1nc(=O)n([C@H]2C=C[C@@H](CO)O2)cc1F)c1cccc(Br)c1 [Compound 41, β-D-N^4-(3-Bromobenzoyl)-2′,3′-didehydro-2′,3′-dideoxy-5-fluorocytidine]
HIV-1LAl
  EC90: 1.71 µM
HIV-1RF
  EC90: 1 µM
HIV-1NL4-3
  EC90: 2.2 µM
Human PBM cells
  IC50: 51.6 µM
[1]
  IC50: 24.9 µM
Vero cells
  IC50: 99.7 µM
MT-2 cells
  IC50: > 50 µM
HepG2 cells
  IC50: > 100 µM

## CCc1ccc(C(=O)Nc2nc(=O)n([C@H]3C=C[C@@H](CO)O3)cc2F)cc1 [Compound 51, β-D-2′,3′-Didehydro-2′,3′-dideoxy-N^4-(4-ethyllbenzoyl)-5-fluorocytidine]
HIV-1LAl
  EC90: 6.2 µM
HIV-1RF
  EC90: 0.24 µM
HIV-1NL4-3
  EC90: 2.3 µM
Human PBM cells
  IC50: 13 µM
[1]
  IC50: 8.1 µM
Vero cells
  IC50: 40.3 µM
MT-2 cells
  IC50: > 50 µM
HepG2 cells
  IC50: > 100 µM

## CC(C)(C)c1ccc(C(=O)Nc2nc(=O)n([C@H]3C=C[C@@H](CO)O3)cc2F)cc1 [Compound 53, β-D-N^4-(4-tert-Butylbenzoyl)-2′,3′-didehydro-2′,3′-dideoxy-5-fluorocytidine]
HIV-1LAl
  EC90: 0.41 µM
HIV-1RF
  EC90: 0.13 µM
HIV-1NL4-3
  EC90: 1.1 µM
Human PBM cells
  IC50: 5 µM
[1]
  IC50: 9.9 µM
Vero cells
  IC50: 59.2 µM
MT-2 cells
  IC50: > 50 µM
HepG2 cells
  IC50: > 100 µM

## CCCC(=O)Nc1nc(=O)n([C@H]2C=C[C@@H](CO)O2)cc1F [Compound 60, β-D-N^4-Butyryl-2′,3′-didehydro-2′,3′-dideoxy-5-fluorocytidine]
HIV-1LAl
  EC90: 1.89 µM
HIV-1RF
  EC90: 2.4 µM
HIV-1NL4-3
  EC90: 3.1 µM
Human PBM cells
  IC50: 52.4 µM
[1]
  IC50: 12.2 µM
Vero cells
  IC50: > 100 µM
MT-2 cells
  IC50: > 50 µM
HepG2 cells
  IC50: > 100 µM

## Nc1nc(=O)n([C@H]2C=C[C@@H](CO)O2)cc1F [D-D4FC, β-D-2′,3′-Dideoxy-2′,3′-didehydro-5-fluorocytidine, reference compound]
HIV-1LAl
  EC90: 0.77 µM
HIV-1RF
  EC90: 1.19 µM
HIV-1NL4-3
  EC90: 1.15 µM
Human PBM cells
  IC50: > 100 µM
[1]
  IC50: > 100 µM
Vero cells
  IC50: > 100 µM
MT-2 cells
  IC50: > 50 µM
HepG2 cells
  IC50: > 100 µM
